Data on two molecules can be found in US8507010B2, “Compositions comprising quinazoline derivatives” (Shanghai Allist Pharmaceuticals, Inc., priority 2008, dated 2013).

The term bioavailability denotes dose-corrected exposure relative to a reference, in per cent. By AUC(0-t) is commonly meant exposure summed from dosing to a finite time, without extrapolation to infinity. The low end stands for low exposure, the high end for high exposure. By Cmax is commonly meant the maximum level reached in the sampled fluid or tissue. The term half-life denotes the time in which the quantity being followed falls by half. Low readings indicate fast loss, high ones slow loss. What is called Tmax is the time at which the peak concentration occurs.

One series can be described thus: in vivo. The following applies: male, SD, rat. The procedure: Intragastric administration (ig): 16 healthy SD rats (Shanghai Super-B&K Laboratory Animal Corp. Ltd., grade SPF), male, weighted 200-250 g, randomly divided into four groups, were each administered intragastrically with a drug: the compound prepared according to Example 1 (21.68 mg/kg), crystalline form A, crystalline form B, or crystalline form C (30 mg/kg) of p-toluenesulfonate of said compound. The blood samples were collected at 0.5 h, 1.0 h, 1.5 h, 2.0 h, 3.0 h, 5.0 h, 7.0 h, 9.0 h, 12 h, and 24 h after administration, which were then isolated to prepare the plasma. The concentrations of the drugs in the plasma were determined by means of liquid phase chromatography/tandem mass spectrometer (Agilent 1200LC/6410B), and the concentration-time curve was obtained.

In a further series the target is erbB-2 kinase (Homo sapiens, UniProt P04626). Conditions: stated in CN 200610023526.7 / WO 2007/082434; cited from earlier work.
Chain of erbB-2 kinase (P04626 23-1255): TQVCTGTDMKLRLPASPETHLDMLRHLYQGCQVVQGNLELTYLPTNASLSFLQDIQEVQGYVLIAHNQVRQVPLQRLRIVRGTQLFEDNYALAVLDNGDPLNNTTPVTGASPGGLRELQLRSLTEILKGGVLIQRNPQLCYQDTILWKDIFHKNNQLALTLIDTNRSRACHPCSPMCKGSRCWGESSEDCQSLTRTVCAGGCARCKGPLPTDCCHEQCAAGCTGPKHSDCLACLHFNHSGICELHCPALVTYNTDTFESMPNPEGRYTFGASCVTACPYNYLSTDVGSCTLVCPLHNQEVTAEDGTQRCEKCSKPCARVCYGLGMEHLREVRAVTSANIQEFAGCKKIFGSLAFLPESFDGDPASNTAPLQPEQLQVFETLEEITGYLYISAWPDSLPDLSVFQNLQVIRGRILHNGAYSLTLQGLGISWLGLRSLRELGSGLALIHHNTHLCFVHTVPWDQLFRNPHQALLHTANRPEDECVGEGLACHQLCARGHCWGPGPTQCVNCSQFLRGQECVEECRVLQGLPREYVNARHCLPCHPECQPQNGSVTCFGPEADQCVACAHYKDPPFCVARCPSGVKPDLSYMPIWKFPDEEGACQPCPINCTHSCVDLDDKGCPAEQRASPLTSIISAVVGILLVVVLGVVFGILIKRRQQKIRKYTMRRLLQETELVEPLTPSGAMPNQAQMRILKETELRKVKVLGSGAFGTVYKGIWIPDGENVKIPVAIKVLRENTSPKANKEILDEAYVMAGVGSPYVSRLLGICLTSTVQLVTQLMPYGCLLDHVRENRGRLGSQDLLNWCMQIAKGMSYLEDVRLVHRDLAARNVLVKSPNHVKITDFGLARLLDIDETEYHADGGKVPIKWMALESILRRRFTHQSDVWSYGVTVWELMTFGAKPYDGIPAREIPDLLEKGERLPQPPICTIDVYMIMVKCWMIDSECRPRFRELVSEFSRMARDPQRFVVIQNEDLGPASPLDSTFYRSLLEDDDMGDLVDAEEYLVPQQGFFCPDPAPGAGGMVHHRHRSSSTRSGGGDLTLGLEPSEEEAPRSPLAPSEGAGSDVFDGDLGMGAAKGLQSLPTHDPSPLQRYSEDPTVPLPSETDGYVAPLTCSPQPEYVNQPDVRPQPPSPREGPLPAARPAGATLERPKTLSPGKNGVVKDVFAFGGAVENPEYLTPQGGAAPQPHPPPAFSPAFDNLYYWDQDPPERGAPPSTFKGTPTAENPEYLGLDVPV
The test system of series [1] is human epidermoid squamous carcinoma cell A431. The following applies: stated in CN 200610023526.7 / WO 2007/082434; cited from earlier work.
Series [2] concerns human breast cancer cell BT-474. Conditions: stated in CN 200610023526.7 / WO 2007/082434; cited from earlier work.
Series [3] deals with human epidermoid squamous carcinoma cell A431. Conditions: stated in CN 200610023526.7 / WO 2007/082434; cited from earlier work. This is another data set of the same source.
Series [4] can be described thus: Test on the drug absorption in SD rat, intravenous injection (iv). The series is classed as in vivo. Conditions: male, 5 mg/kg, plasma. The protocol:
Intravenous injection (iv): 4 healthy SD rats, male, weighted 200-250 g, were intravenously administered with p-toluenesulfonate of the compound of Example 1 (5 mg/kg). The blood samples were collected at 5 min, 15 min, 0.5 h, 1.5 h, 2.0 h, 3.0 h, 4.0 h, 5.0 h and 7.0 h after administration, which were then isolated to prepare the plasma. The concentrations of the drugs in the plasma were determined by means of liquid phase chromatography/tandem mass spectrometer and the concentration-time curve was obtained.

The test system of series [5] is human epidermoid squamous cancer cell A431. Nature of the series: Tumor-inhibitory effect on human epidermoid squamous cancer cell A431 grafted to a BALB/cA nude mouse. Type of series: in vivo. Conditions: A431 grafted to BALB/cA nude mouse, high expression of EGFR (erbB-1), p-toluenesulfonate. The procedure:
A well-developed solid tumor A431 was selected and incised into several uniform pieces with the size of 2-3 mm under sterile conditions, with one piece being grafted subcutaneously to the right armpit of each of the BALB/cA nude mice using a trocar. 7 days after the grafting, the mice were grouped randomly and were intragastrically administrated through mouth for 13 successive days. The long axis (a) and the short axis (b) of the tumors were measured with a vernier caliper every 4 days. According to the formula V=ab^2/2, the volume of the tumor (mm^3) could be calculated. The tested animals were neck-off killed 23 days after the grafting, and anatomized to obtain the tumors. The tumors were weighed, and the tumor inhibition rate was calculated.
(§1) Human epidermoid squamous carcinoma A431 grafted to BALB/cA nude mouse is an animal model having high expression of EGFR (erbB-1), and human ovarian cancer SKOV-3 grafted to BALB/cA nude mouse is an animal model having high expression of erbB-2.

Series [6] concerns human ovarian cancer SKOV-3. Nature of the series: Tumor-inhibitory effect on human ovarian cancer SKOV-3 grafted to a BALB/cA nude mouse. Conditions: SKOV-3 grafted to BALB/cA nude mouse, high expression of erbB-2; listed as p-toluenesulfonate of N-{-4-[3-chloro-4-(3-fluoro-benzyloxy)phenylamino]quinazol, p-toluenesulfonate. Type of series: in vivo. The protocol: A SKOV-3 tumor tissue in vigorous growth period was selected and incised into uniform pieces with the size of about 1.5 mm^3, which was grafted subcutaneously to the right armpit of a BALB/cA nude mouse (Shanghai Institute of Materia Medica, Chinese Academy of Sciences, grade SPF) with a trocar under sterile conditions. The diameters of the grafted tumors on the nude mouse were measured with a vernier caliper. The animals were grouped randomly when the tumors grew to a size of 80 to 100 mm^3. The tested animal groups were intragastrically administered through mouth as mentioned above once a day for 3 consecutive weeks. The positive control drug MMC (Mitomycin) was intravenously administered once on the first day with a dose of 5 mg/kg (0.9% sterile sodium chloride solution). The negative control group was administered with 0.5% CMC-Na (Carboxymethyl Cellulose-Sodium) with a dose of 0.2 mL/per mouse. The long axis (a) and the short axis (b) of the tumors were measured twice every week and the nude mice were weighed at the same time. According to the formula V=ab^2/2, the volume (mm^3) of the tumor could be calculated. Relative tumor volume (RTV) was calculated from the measurement result (according to the formula: RTV=Vt/V0, wherein V0 is the tumor volume measured upon the grouping time of administration, and Vt is the tumor volume measured each time). The relative tumor proliferation rate T/C(%) was chosen as the index of evaluation of anti-tumor activity, by the formula: T/C(%)=(TRTV/CRTV)×100 TRTV: RTV of the treated group; CRTV: RTV of the negative control group
as §1

Regarding `C=CC(=O)Nc1ccc2ncnc(Nc3ccc(OCc4cccc(F)c4)c(Cl)c3)c2c1` [The compound of Example 1, N-{4-[3-chloro-4-(3-fluoro-benzyloxy)phenylamino]quinazolin-6-yl}-acrylamide], the bioavailability in “in vivo” (absolute bioavailability) came to 0.95%. The molecule further registered an AUC(0-t) in “in vivo” (po, 21.68 mg/kg, AUC0-t) of 106 ng·h/mL. In “in vivo” (po, 21.68 mg/kg, Cmax), this molecule displayed a Cmax of 32 ng/mL. This molecule also gave a half-life in the series “in vivo” (po, 21.68 mg/kg, T1/2) of 109 min. Also, the Tmax in the series “in vivo” (po, 21.68 mg/kg, Tmax) amounted to 45 min. The “inhibitory activity against erbB-2 kinase (in words)” value at erbB-2 kinase is reported as “excellent inhibitory activity”. In addition, in series [1], the “inhibitory effect on growth of A431 cells (in words)” value was “remarkable inhibitory effect”. In addition, the “inhibitory effect on growth of BT-474 cells (in words)” value in series [2] was “remarkable inhibitory effect”. Besides, the “anti-tumor effect on A431 grafted to a nude mouse (in words)” value in series [3] is recorded as “obvious anti-tumor effect”.

`C=CC(=O)Nc1ccc2ncnc(Nc3ccc(OCc4cccc(F)c4)c(Cl)c3)c2c1.Cc1ccc(S(=O)(=O)O)cc1` [p-toluene sulfonate, N-{4-[3-chloro-4-(3-fluoro-benzyloxy)phenylamino]quinazolin-6-yl}-acrylamide p-toluenesulfonate]: in series [4], the AUC(0-t) is 1860 ng·h/mL, the Cmax worked out at 1740 ng/mL, the Tmax worked out at 4.98 min and the half-life is 93 min. In addition, the “inhibitory effect on the tumor (in words)” value in series [5] (listed as p-toluenesulfonate of N-{-4-[3-chloro-4-(3-fluoro-benzyloxy)phenylamino]-quinazo) is “significant inhibitory effect on the tumor”. In series [5] (listed as p-toluenesulfonate of N-{-4-[3-chloro-4-(3-fluoro-benzyloxy)phenylamino]quinazol), the “inhibitory effect on the tumor (in words)” value is “remarkable inhibitory effect on tumor growth”. Moreover, in series [6], the “inhibitory effect on the tumor (in words)” value is listed as “remarkable inhibitory effect on tumor growth”.
